Article PMC4688987, “Characterization of Toxoplasma gondii glyoxalase 1 and evaluation of inhibitory effects of curcumin on the enzyme and parasite cultures” (Parasites & Vectors, 2015)

Target: T1, rTgGlo1 (recombinant Toxoplasma gondii glyoxalase 1) (Toxoplasma gondii, UniProt A0A7J6JV59)
T1 construct: gene TGRH88_062270; full-length ORF (1008 nt, printed 336 residues) in pRSETb, His-tagged, E. coli BL21(DE3)pLysS; S-hexylglutathione-agarose then Ni-NTA; two glyoxalase domains 20-167 and 181-325
T1 sequence (A0A7J6JV59 1-336): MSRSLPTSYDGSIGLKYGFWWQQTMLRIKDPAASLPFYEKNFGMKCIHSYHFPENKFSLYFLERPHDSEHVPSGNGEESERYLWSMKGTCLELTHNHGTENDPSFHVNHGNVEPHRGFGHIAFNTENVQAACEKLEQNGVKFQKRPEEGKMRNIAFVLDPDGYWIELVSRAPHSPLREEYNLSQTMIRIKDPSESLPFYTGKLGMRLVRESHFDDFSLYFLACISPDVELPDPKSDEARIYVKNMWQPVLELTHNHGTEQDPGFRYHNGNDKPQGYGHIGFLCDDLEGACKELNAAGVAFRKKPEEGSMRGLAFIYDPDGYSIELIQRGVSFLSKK
Assay: spectrophotometric at […] nm, Lineweaver-Burk
Format: biochemical

COc1cc(/C=C/C(=O)CC(=O)/C=C/c2ccc(O)c(OC)c2)ccc1O [curcumin]
Ki: 12.9 ± 0.5 µM
